# pIC50: −log10 of the molar value.
# Target: T1, CCR1 (Homo sapiens, UniProt P32246)
# T1 construct: host or cells: THP-1 myelomonocytic leukemia cells (or freshly isolated monocytes)
# T1 sequence (P32246 1-355): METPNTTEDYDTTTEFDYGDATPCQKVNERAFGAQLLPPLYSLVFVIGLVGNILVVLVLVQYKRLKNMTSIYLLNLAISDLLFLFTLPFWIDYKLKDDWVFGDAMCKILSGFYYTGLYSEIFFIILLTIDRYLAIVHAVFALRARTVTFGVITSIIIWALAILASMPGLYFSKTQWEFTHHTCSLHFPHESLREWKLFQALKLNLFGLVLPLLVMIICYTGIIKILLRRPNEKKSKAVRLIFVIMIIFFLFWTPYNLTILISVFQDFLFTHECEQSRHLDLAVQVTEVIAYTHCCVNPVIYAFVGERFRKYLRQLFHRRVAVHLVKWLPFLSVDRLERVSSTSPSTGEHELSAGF
# Assay: Chemotaxis (migration) assay
# Assay type: cell-based
# Conditions: THP-1 or monocyte cells, CCR1 chemokine ligand (MIP-1α, CCL15/Leukotactin), 1-2 hours at 37° C.
# Procedure: THP-1 cells were obtained from ATCC (TIB-202) and cultured as a suspension in RPMI-1640 medium supplemented with 2 mM L-glutamine, 1.5 g/L sodium bicarbonate, 4.5 g/L glucose, 10 mM HEPES, 1 mM sodium pyruvate, 0.05% 2-mercaptoethanol and 10% FBS. Cells were grown under 5% CO2/95% air, 100% humidity at 37° C. and subcultured twice weekly at 1:5 (cells were cultured at a density range of 2×10^5 to 2×10^6 cells/mL) and harvested at 1×10^6 cells/mL. THP-1 cells express CCR1 and can be used in CCR1 binding and functional assays.
# Chemotaxis assays were performed using 5 μm pore polycarbonate, polyvinylpyrrolidone-coated filters in 96-well chemotaxis chambers (Neuroprobe; Gaithersburg, Md.) using chemotaxis buffer (Hank's balanced salt solution (HBSS) and 1% FBS). CCR1 chemokine ligands (i.e., MIP-1α, CCL15/Leukotactin; R&D Systems; Minneapolis, Minn.) are use to evaluate compound mediated inhibition of CCR1 mediated migration. Other chemokines (i.e., SDF-1α; R&D Systems; Minneapolis, Minn.) are used as specificity controls. The lower chamber was loaded with 29 μl of chemokine (i.e., 0.1 nM CCL15/Leukotactin) and varying amounts of compound, the top chamber contained 100,000 THP-1 or monocyte cells in 20 μl. The chambers were incubated 1-2 hours at 37° C., and the number of cells in the lower chamber quantified either by direct cell counts in five high powered fields per well or by the CyQuant assay (Molecular Probes), a fluorescent dye method that measures nucleic acid content and microscopic observation.
# One of the primary functions of chemokines is their ability to mediate the migration of chemokine receptor-expressing cells, such as white blood cells. To confirm that a compound of interest inhibited not only CCR1 specific binding and signaling (at least as determined by calcium mobilization assays), but also CCR1 mediated migration, a chemotaxis assay was employed. THP-1 myelomonocytic leukemia cells, which resemble monocytes, as wells as freshly isolated monocytes, were used as targets for chemoattraction by CCR1 chemokine ligands (i.e., MIP-1α, CCL15/leukotactin). Cells were placed in the top compartment of a microwell migration chamber, while MIP-1α (or other potent CCR1 chemokine ligand) and increasing concentrations of a compound of interest was loaded in the lower chamber. […] To ascertain a compound of interest's affinity for CCR1 as well as to confirm its ability to inhibit CCR1 mediated cell migration, inhibitory activity was titered over a 1×10^−10 to 1×10^−4 M range of compound concentrations in this chemotaxis assay. In this assay, the amount of compound was varied; while cell number and chemokine agonist concentrations were held constant. After the chemotaxis chambers were incubated 1-2 hours at 37° C., the responding cells in the lower chamber were quantified by labeling with the CyQuant assay (Molecular Probes), a fluorescent dye method that measures nucleic acid content, and by measuring with a Spectrafluor Plus (Tecan). The computer program Prism from GraphPad, Inc. (San Diego, Ca) was used to calculate IC50 values. IC50 values are those compound concentrations required to inhibit the number of cells responding to a CCR1 agonist by 50%.
row,Compound,pIC50
1,Cc1nc(C(F)(F)F)cn1C(C)C(=O)Nc1cnn(-c2ccc(Cl)cc2)c1C1CC1 (stereo not drawn) [1.002],5.00 to 7.00
2,Cc1nc(C(F)(F)F)cn1C(C)C(=O)Nc1cnn(-c2ccc(Cl)cc2)c1C(C)C (stereo not drawn) [1.015],≥ 7.00
3,Cc1c(Cl)c(C(F)(F)F)nn1CC(=O)Nc1cnn(-c2ccc(F)cc2)c1 [1.027],5.00 to 7.00
4,Cc1c(Cl)c(C(F)(F)F)nn1CC(=O)Nc1cnn(-c2ccc(F)cc2)c1C [1.025],5.00 to 7.00
5,CCOc1c(NC(=O)C(C)n2cc(C(F)(F)F)nc2C)cnn1-c1ccc(F)cc1 (stereo not drawn) [1.006],5.00 to 7.00
6,Cc1nc(C(F)(F)F)cn1C(C)C(=O)Nc1cnn(-c2ccc(F)cc2)c1C(C)C (stereo not drawn) [1.018],≥ 7.00
7,CCC(C(=O)Nc1cnn(-c2ccc(F)cc2)c1C(C)C)n1nc(C(F)(F)F)c(Cl)c1C (stereo not drawn) [1.017],≥ 7.00
8,Cc1c(NC(=O)Cn2nc(C(F)(F)F)c(Cl)c2C)ncn1-c1ccc(F)cc1 [1.020],5.00 to 7.00
9,Cc1nc(C(F)(F)F)cn1C(C)C(=O)Nc1cnn(-c2ccc(Cl)cc2)c1C(C)C (stereo not drawn) [1.011],≥ 7.00
10,Cc1nc(C(F)(F)F)cn1C(C)C(=O)Nc1cnn(-c2ccc(F)cc2)c1OC(C)C (stereo not drawn) [1.005],5.00 to 7.00
11,Cc1nc(C(F)(F)F)c2n1C(C(=O)Nc1cnn(-c3ccc(Cl)cc3)c1C(C)C)CCC2 (stereo not drawn) [1.012],≥ 7.00
12,Cc1c(Cl)c(C(F)(F)F)nn1CC(=O)Nc1cnn(-c2ccc(F)cc2)c1-c1ccccc1 [1.021],5.00 to 7.00
13,Cc1nc(C(F)(F)F)nn1C(C)C(=O)Nc1cnn(-c2ccc(Cl)cc2)c1C(C)C (stereo not drawn) [1.010],≥ 7.00

# Continued, values first:
row,pIC50,Compound
1,5.00 to 7.00,Cc1c(Cl)c(C(F)(F)F)nn1C(CCCCO)C(=O)Nc1cnn(-c2ccc(F)cc2)c1C(C)C (stereo not drawn) [1.014]
2,5.00 to 7.00,CCc1c(NC(=O)Cn2nc(C(F)(F)F)c(Cl)c2C)cnn1-c1ccc(F)cc1 [1.023]
3,5.00 to 7.00,Cc1nc(C(F)(F)F)nn1C(C)C(=O)Nc1cnn(-c2ccc(F)cc2)c1C(C)C (stereo not drawn) [1.008]
4,5.00 to 7.00,Cc1nc(C(F)(F)F)cn1C(C)C(=O)Nc1cnn(-c2ccc(F)cc2)c1N(C)C (stereo not drawn) [1.003]
5,5.00 to 7.00,Cc1nc(C(F)(F)F)cn1C(C)C(=O)Nc1cnn(-c2ccc(F)cc2)c1C (stereo not drawn) [1.024]
6,5.00 to 7.00,Cc1nc(C(F)(F)F)cn1C(C)C(=O)Nc1cnn(-c2ccc(F)cc2)c1Cl (stereo not drawn) [1.004]
7,≥ 7.00,CCC(C(=O)Nc1cnn(-c2ccc(F)cc2)c1C(C)C)n1cc(C(F)(F)F)nc1C (stereo not drawn) [1.019]
8,5.00 to 7.00,Cc1c(Cl)c(C(F)(F)F)nn1CC(=O)N(C)c1cnn(-c2ccc(F)cc2)c1 [1.026]
9,5.00 to 7.00,Cc1c(Cl)c(C(F)(F)F)nn1C(C)(C)C(=O)Nc1cnn(-c2ccc(F)cc2)c1C(C)C [1.007]
10,≥ 7.00,Cc1nc(C(F)(F)F)cn1C(C)C(=O)Nc1nnn(-c2ccc(Cl)cc2)c1C(C)C (stereo not drawn) [1.001]
11,5.00 to 7.00,Cc1nc(C(F)(F)F)cn1C(C)C(=O)Nc1cnc(-c2ccc(Cl)cc2)n1C(C)C (stereo not drawn) [1.028]
12,≥ 7.00,Cc1nc(C(F)(F)F)cn1C(C)C(=O)Nc1cnn(-c2ccc(F)cc2)c1C(C)C (stereo not drawn) [1.009]
13,5.00 to 7.00,Cc1nc(C(F)(F)F)cn1C(C)C(=O)Nc1cnn(-c2ccc(F)cc2)c1C(C)(C)C (stereo not drawn) [1.013]
14,≥ 7.00,Cc1nc(C(F)(F)F)cn1[C@@H](C)C(=O)Nc1cnn(-c2ccc(Cl)cc2)c1C1CCC1 [1.029]
15,≥ 7.00,Cc1c(Cl)c(C(F)(F)F)nn1C(C)C(=O)Nc1cnn(-c2ccc(F)cc2)c1C(C)C (stereo not drawn) [1.016]
16,≥ 7.00,Cc1c(Cl)c(C(F)(F)F)nn1CC(=O)Nc1cnn(-c2ccc(F)cc2)c1C(C)C [1.022]

# Test system: inflammatory cells recruited to the inflamed synovial fluid of the knee joints
# Assay: Rabbit model of destructive joint inflammation (rabbit LPS study)
# Assay type: in vivo, Female New Zealand rabbits
# Conditions: intra-articular LPS (10 ng), dosed orally in 1% methocel 2 hours before and 4 hours after LPS, knees lavaged sixteen hours after LPS
# Procedure: A rabbit LPS study was conducted essentially as described in Podolin, et al. J. Immunol. 169(11):6435-6444 (2002). Female New Zealand rabbits (approximately 2 kilograms) were treated intra-articularly in both knees with LPS (10 ng). The compound of interest, for example 1.016, (formulated in 1% methocel) or vehicle (1% methocel) was dosed orally at a 5 ml/kg dose volume at two times (2 hours before the intra-articular LPS injection and 4 hours after the intra-articular LPS injection). Sixteen hours after the LPS injection, knees were lavaged and cells counts were performed. Beneficial effects of treatment were determined by reduction in the number of inflammatory cells recruited to the inflamed synovial fluid of the knee joints.
row,Compound,reduction in the number of inflammatory cells recruited to the inflamed synovial fluid of the knee joints
1,Cc1c(Cl)c(C(F)(F)F)nn1C(C)C(=O)Nc1cnn(-c2ccc(F)cc2)c1C(C)C (stereo not drawn) [1.016],significant reduction in recruited inflammatory cells
